Test results as given in article PMC12447391 (2025).

How the values were obtained:
[1] = tested on: R5MPT (DNA, aptamer) CGGGCGACGGGGATTTTTGGTGCACTATGTGGTTCGTTCGGGGTGGGCTGCGTTCTCCATTCTGGTTTTTTCCGATTACAGCC; experiment: ITC; conditions: PBS, 25 °C
[2] = tested on: Ref (DNA, aptamer) CGACCGGTCTGGGGACCCTGTCTGGGTGTGTGGGTAGTAGGTCGTTTTTTCCGATTACAGCC; experiment: ITC; conditions: PBS, 25 °C
[3] = tested on: R5MPT (DNA, aptamer) CGGGCGACGGGGATTTTTGGTGCACTATGTGGTTCGTTCGGGGTGGGCTGCGTTCTCCATTCTGGTTTTTTCCGATTACAGCC; experiment: CD; conditions: PBS, 25 °C; 1 μM aptamer, 1 μM cortisol; peaks shift
[4] = tested on: R5MPT in Apta-gel (DNA, aptamer) CGGGCGACGGGGATTTTTGGTGCACTATGTGGTTCGTTCGGGGTGGGCTGCGTTCTCCATTCTGGTTTTTTCCGATTACAGCC; experiment: OECT flow-cell kinetics (koff/kon); conditions: PBS, 25 °C; apparent; kon 201.4 M^-1 s^-1, koff 0.0067 s^-1; immobilised aptamer
[5] = tested on: Ref in Apta-gel (DNA, aptamer) CGACCGGTCTGGGGACCCTGTCTGGGTGTGTGGGTAGTAGGTCGTTTTTTCCGATTACAGCC; experiment: OECT transient response, equilibrium titration; conditions: PBS, 21 °C; apparent; immobilised aptamer
[6] = tested on: Ref in Apta-gel (DNA, aptamer) CGACCGGTCTGGGGACCCTGTCTGGGTGTGTGGGTAGTAGGTCGTTTTTTCCGATTACAGCC; experiment: nonfaradic EIS of Apta-gel; conditions: PBS; effective capacitance rises at 21 °C, falls at 35 °C
[7] = tested on: TESS.1_trimmed in Apta-gel (DNA, aptamer) ACGGGATGTCCGGGGTACGGTGGTTGCAGTTCGTTTTTTTCCGATTACAGCC; experiment: OECT transient response, equilibrium titration; conditions: PBS, immobilised aptamer

KD [1] [µM]	KD [2] [µM]	binding [3]	KD [4] [µM]	KD [5] [µM]	binding [6]	KD, apparent [7] [µM]	SMILES
10.2	3.75	yes	33	45.95	yes	–	C[C@]12CCC(=O)C=C1CC[C@@H]1[C@@H]2[C@@H](O)C[C@@]2(C)[C@H]1CC[C@]2(O)C(=O)CO
–	–	–	–	–	–	0.303	C[C@]12CC[C@H]3[C@@H](CCC4=CC(=O)CC[C@@]43C)[C@@H]1CC[C@@H]2O
